Experimental data published in US4738986A, “N-(3-phenoxycinnamyl)acetohydroxamic acid” (Burroughs Wellcome Co., priority 1985, dated 1988).

Columns and labels:
5-lipoxygenase (LO) = biological target: T1, 5-lipoxygenase (LO) (Homo sapiens, UniProt P09917); experiment: In vitro inhibition of 5-lipoxygenase (LO): leukotriene B4 from arachidonic acid in leukocyte homogenate, radioimmunoassay; format: biochemical; details: volunteers' blood, 5 μM arachidonic acid, 37°, 5 minutes, leukotriene B4 RIA
T1 construct: The leukocytes were homogenised and 5 μM arachidonic acid added; endogenous in cells; host or cells: leukocytes from blood of normal aspirin-free volunteers, separated from red cells and platelets by centrifugation, homogenised
T1 sequence (P09917 1-674): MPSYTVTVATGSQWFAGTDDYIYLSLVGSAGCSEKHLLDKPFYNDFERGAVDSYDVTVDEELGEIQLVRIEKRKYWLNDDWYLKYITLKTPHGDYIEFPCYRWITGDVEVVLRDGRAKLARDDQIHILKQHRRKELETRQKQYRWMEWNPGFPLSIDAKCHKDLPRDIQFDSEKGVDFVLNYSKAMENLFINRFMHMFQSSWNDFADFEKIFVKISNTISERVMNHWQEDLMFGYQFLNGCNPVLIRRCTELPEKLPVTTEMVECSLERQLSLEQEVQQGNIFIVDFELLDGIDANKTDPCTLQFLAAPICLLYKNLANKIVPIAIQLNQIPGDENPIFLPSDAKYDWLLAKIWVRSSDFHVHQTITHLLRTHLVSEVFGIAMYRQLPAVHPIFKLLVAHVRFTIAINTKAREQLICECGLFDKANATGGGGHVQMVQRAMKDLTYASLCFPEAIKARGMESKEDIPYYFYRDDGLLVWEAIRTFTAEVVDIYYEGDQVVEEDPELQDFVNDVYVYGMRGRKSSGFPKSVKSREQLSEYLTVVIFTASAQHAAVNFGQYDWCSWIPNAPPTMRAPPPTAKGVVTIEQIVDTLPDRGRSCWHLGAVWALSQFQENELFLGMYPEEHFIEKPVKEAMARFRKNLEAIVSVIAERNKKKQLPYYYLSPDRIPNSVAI
Description: (§1) In vitro inhibition of 5-lipoxygenase (LO) and Cyclooxygenase (CO)
(§2) Blood from normal aspirin-free volunteers was centrifuged to separate leukocytes from red cells and platelets. The leukocytes were homogenised and 5 μM arachidonic acid added, followed by incubation at 37° for 5 minutes. The reaction was stopped by boiling. Radioimmunoassay was conducted for leukotriene B4 (an LO product) and […] (a CO product). Results were calculated as IC50 μM activity against each enzyme and as listed below.

Cyclooxygenase (CO) = biological target: T2, Cyclooxygenase (CO) (Homo sapiens, UniProt P23219); experiment: In vitro inhibition of cyclooxygenase (CO): thromboxane release from arachidonic acid in leukocyte homogenate, radioimmunoassay; format: biochemical; details: volunteers' blood, 5 μM arachidonic acid, 37°, 5 minutes, thromboxane B4 RIA
T2 construct: The leukocytes were homogenised and 5 μM arachidonic acid added; endogenous in cells; host or cells: leukocytes from blood of normal aspirin-free volunteers, separated from red cells and platelets by centrifugation, homogenised
T2 sequence (P23219 24-599): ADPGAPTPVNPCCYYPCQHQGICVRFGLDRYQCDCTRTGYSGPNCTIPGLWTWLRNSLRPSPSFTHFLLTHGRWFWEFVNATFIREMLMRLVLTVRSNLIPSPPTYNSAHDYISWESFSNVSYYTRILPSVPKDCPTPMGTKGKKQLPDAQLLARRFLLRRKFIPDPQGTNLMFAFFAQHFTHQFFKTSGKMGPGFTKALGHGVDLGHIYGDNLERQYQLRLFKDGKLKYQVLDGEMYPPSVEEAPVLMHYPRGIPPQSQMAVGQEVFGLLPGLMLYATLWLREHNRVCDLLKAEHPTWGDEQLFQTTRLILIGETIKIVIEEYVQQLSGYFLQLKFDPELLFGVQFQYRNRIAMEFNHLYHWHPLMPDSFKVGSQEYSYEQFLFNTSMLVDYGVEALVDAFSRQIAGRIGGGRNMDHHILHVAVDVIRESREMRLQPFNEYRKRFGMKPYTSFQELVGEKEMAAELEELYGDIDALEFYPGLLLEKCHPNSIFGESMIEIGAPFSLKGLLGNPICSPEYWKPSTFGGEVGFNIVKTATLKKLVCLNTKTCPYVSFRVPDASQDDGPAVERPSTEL
Description: as §1, §2

For “3-Phenoxy-N-methylcinnamohydroxamic Acid [Example 1]”, the IC50 (5-lipoxygenase (LO)) was < 0.1 µM and the IC50 (Cyclooxygenase (CO)) was 3 µM.
